These results are taken from US20180273579A1, “COMPOUNDS WITH HIV MATURATION INHIBITORY ACTIVITY” (priority 2015, published 2018).

One assay deals with HIV-1 (strain IIIB). The experiment in a line: MT4 Cell Antiviral Assay (general statement, control). The format is cell-based. As to conditions: Human immunodeficiency virus 1, IIIB, control and standard in every assay, propidium iodide readout, read-out: expected range of IC50 values. The procedure:
Antiviral HIV activity and compound-induced cytotoxicity were measured in parallel by means of a propidium iodide based procedure in the human T-cell lymphotropic virus transformed cell line MT4. Aliquots of the test compounds were serially diluted in medium (RPMI 1640, 10% fetal calf serum (FCS), and gentamycin) in 96-well plates (Costar 3598) using a Cetus Pro/Pette. Exponentially growing MT4 cells were harvested and centrifuged at 1000 rpm for 10 min in a Jouan centrifuge (model CR 4 12). Cell pellets were resuspended in fresh medium (RPMI 1640, 20% FCS, 20% IL-2, and gentamycin) to a density of 5×10^5 cells/ml. […]
For propidium iodide readout, 27 μl of 5% Nonidet-40 was added to each well of the incubation plate. […] The plates were analyzed in an automated assay instrument (Screen Machine, Idexx Laboratories). […]
For MTS readout, 20 μl CellTiter 96 AQ One Solution reagent (Promega #G3582) was added to each well. At 75 minutes following the addition of MTS reagent, absobance was read at 492 nm using a Tecan Sunrise 96-well plate reader. […]
For each assay plate, the results (relative fluorescence units, rfU, or OD values) of wells containing uninfected cells or infected cells with no compound were averaged, respectively. […] Percent of cells remaining is determined by the following formula: […]

For the next assay, the system named is HIV. As to conditions: cited from earlier work.
The subject of a further assay is NL4-3 wt. The experiment in a line: MT4 Cell Antiviral Assay (NL4-3 wt). Conditions: Human immunodeficiency virus 1, NL43, HIV MT4 Antiviral Cell Assay. The format is cell-based, HIV-1.
A further assay concerns V370A. The experiment in a line: MT4 Cell Antiviral Assay (V370A). It counts as cell-based, HIV-1. Conditions: Human immunodeficiency virus 1, MT4, read-out: EC50 V370A (nM).

Where a name gives a salt, the structure may show the parent alone.

On to `Cc1cn([C@H]2C[C@H](N=[N+]=[N-])[C@@H](CO)O2)c(=O)[nH]c1=O` [3′-azido-3′-deoxythymidine], for which the 50% inhibitory concentration (IC50) in the assay on HIV-1 (strain IIIB) is 0.04 to 0.12 µM.
Take `C=C(C)[C@@H]1CC[C@]2(C(=O)O)CC[C@]3(C)[C@H](CC[C@@H]4[C@@]5(C)CC[C@H](OC(=O)CC(C)(C)C(=O)O)C(C)(C)[C@@H]5CC[C@]43C)[C@@H]12` [Bevirimat]: in the assay on HIV (patients with trough levels >=20 μg/mL and without key baseline Gag polymorphisms at Q369, V370 or T371), the “reduced HIV viral load, mean” value is on record as 1.3 log10/mL. Moreover, the viral load reduction result with HIV (users with Gag polymorphisms at Q369, V370 or T371, versus patients without them) was “significantly lower load reductions”.
Consider `CC(C)C1=C2[C@H]3CC[C@@H]4[C@@]5(C)CC=C(C6=CCC(C(=O)O)CC6)C(C)(C)[C@@H]5CC[C@@]4(C)[C@]3(C)CC[C@@]2(C(=O)NCCN2CCC(S(C)(=O)=O)CC2)CC1=O` (stereo partly drawn) [Example 1, 4-((3aR,5aR,5bR,7aR,11aS,11bR,13aS)-1-Isopropyl-5a,5b,8,8,11a-pentamethyl-3a-((2-(4-(methylsulfonyl)piperidin-1-yl)ethyl)carbamoyl)-2-oxo-3,3a,4,5,5a,5b,6,7,7a,8,11,11a,11b,12,13,13a-hexadecahydro-2H-cyclopenta[a]chrysen-9-yl)cyclohex-3-enecarboxylic acid], for which the half-maximal effective concentration (EC50) was over 23.9 µM in the assay with NL4-3 wt and over 25000 nM with V370A.
For `CC(C)C1=C2[C@H]3CC[C@@H]4[C@@]5(C)CC=C(C6=CCC(C(=O)O)CC6)C(C)(C)[C@@H]5CC[C@@]4(C)[C@]3(C)CC[C@@]2(C(=O)NCCN2CCS(=O)(=O)CC2)CC1=O` (stereo partly drawn) [Example 2, 4-((3aR,5aR,5bR,7aR,11aS,11bR,13aS)-3a-((2-(1,1-Dioxidothiomorpholino)ethyl)carbamoyl)-1-isopropyl-5a,5b,8,8,11a-pentamethyl-2-oxo-3,3a,4,5,5a,5b,6,7,7a,8,11,11a,11b,12,13,13a-hexadecahydro-2H-cyclopenta[a]chrysen-9-yl)cyclohex-3-enecarboxylic acid], the EC50 in the assay on NL4-3 wt was 3.39 µM; in the assay with V370A, over 25000 nM.
Regarding `CC(C)C1=C2[C@H]3CC[C@@H]4[C@@]5(C)CC=C(C6=CCC(C(=O)O)CC6)C(C)(C)[C@@H]5CC[C@@]4(C)[C@]3(C)CC[C@@]2(C(=O)N(CCN(C)C)[C@H](C)c2ccc(Cl)cc2)CC1=O` (stereo partly drawn) [Example 5, 4-((3aR,5aR,5bR,7aR,11aS,11bR,13aS)-3a-(((R)-1-(4-Chlorophenyl)ethyl) (2-(dimethylamino)ethyl)carbamoyl)-1-isopropyl-5a,5b,8,8,11a-pentamethyl-2-oxo-3,3a,4,5,5a,5b,6,7,7a,8,11,11a,11b,12,13,13a-hexadecahydro-2H-cyclopenta[a]chrysen-9-yl)cyclohex-3-enecarboxylic acid], the EC50 came out at 0.0076 µM in the assay on NL4-3 wt and 9.5 nM with V370A.
Consider `CC(C)C1=C2[C@H]3CC[C@@H]4[C@@]5(C)CC=C(C6=CCC(C(=O)O)CC6)C(C)(C)[C@@H]5CC[C@@]4(C)[C@]3(C)CC[C@@]2(C(=O)N(CCN(C)C)Cc2ccc(Cl)cc2)CC1=O` (stereo partly drawn) [Example 6, 4-((3aR,5aR,5bR,7aR,11aS,11bR,13aS)-3a-((4-Chlorobenzyl) (2-(dimethylamino)ethyl)carbamoyl)-1-isopropyl-5a,5b,8,8,11a-pentamethyl-2-oxo-3,3a,4,5,5a,5b,6,7,7a,8,11,11a,11b,12,13,13a-hexadecahydro-2H-cyclopenta[a]chrysen-9-yl)cyclohex-3-enecarboxylic acid], for which the EC50 in the assay on NL4-3 wt was determined as 0.0112 µM; in the assay with V370A, 14.1 nM.
As for `CC(C)C1=C2[C@H]3CC[C@@H]4[C@@]5(C)CC=C(c6ccc(C(=O)O)cc6)C(C)(C)[C@@H]5CC[C@@]4(C)[C@]3(C)CC[C@@]2(C(=O)N(CCN(C)C)[C@H](C)c2ccc(Cl)cc2)CC1=O` [Example 7, 4-((3aR,5aR,5bR,7aR,11aS,11bR,13aS)-3a-(((R)-1-(4-Chlorophenyl)ethyl) (2-(dimethylamino)ethyl)carbamoyl)-1-isopropyl-5a,5b,8,8,11a-pentamethyl-2-oxo-3,3a,4,5,5a,5b,6,7,7a,8,11,11a,11b,12,13,13a-hexadecahydro-2H-cyclopenta[a]chrysen-9-yl)benzoic acid hydrochloride], the EC50 in the assay on NL4-3 wt worked out at 0.0085 µM; in the assay with V370A, 8.9 nM.
As for `CC(C)C1=C2[C@H]3CC[C@@H]4[C@@]5(C)CC=C(c6ccc(C(=O)O)cc6)C(C)(C)[C@@H]5CC[C@@]4(C)[C@]3(C)CC[C@@]2(C(=O)N(CCN(C)C)Cc2ccc(Cl)cc2)CC1=O` [Example 8, 4-((3aR,5aR,5bR,7aR,11aS,11bR,13aS)-3a-((4-Chlorobenzyl) (2-(dimethylamino)ethyl)carbamoyl)-1-isopropyl-5a,5b,8,8,11a-pentamethyl-2-oxo-3,3a,4,5,5a,5b,6,7,7a,8,11,11a,11b,12,13,13a-hexadecahydro-2H-cyclopenta[a]chrysen-9-yl)benzoic acid hydrochloride], the figures for the EC50 with NL4-3 wt and in the assay with V370A were 0.0288 µM and 64.6 nM, respectively.

By IC50 is commonly meant the midpoint of a concentration-inhibition curve. A word on the EC50: it is the concentration that produces a half-maximal response.
